Measured values reported in PubChem BioAssay (NCI).
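In this assay, cells in 96-well plates receive the compound at five concentrations for 48 hours. Endpoints are linearly interpolated between the surrounding concentrations. GI50 marks 50% less growth. TGI is the concentration that stops growth completely.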

Assays:
Experiment in all cases: NCI anticancer screen, dose series, 48 h
EKVX NSCLC = test system: EKVX NSCLC
NCI-H226 lung = test system: NCI-H226 lung
HL-60(TB) leukemia = test system: HL-60(TB) leukemia
MCF7 breast = test system: MCF7 breast
MALME-3M melanoma = test system: MALME-3M melanoma
NCI-H23 lung = test system: NCI-H23 lung
UO-31 renal = test system: UO-31 renal
SK-OV-3 ovarian = test system: SK-OV-3 ovarian
ACHN renal = test system: ACHN renal
OVCAR-5 ovarian = test system: OVCAR-5 ovarian
HCC-2998 colon = test system: HCC-2998 colon
SNB-19 CNS = test system: SNB-19 CNS
HCT-15 colon = test system: HCT-15 colon
OVCAR-8 ovarian = test system: OVCAR-8 ovarian
SN12C renal = test system: SN12C renal
SF-295 CNS = test system: SF-295 CNS
IGROV1 ovarian = test system: IGROV1 ovarian
NCI/ADR-RES ovarian = test system: NCI/ADR-RES ovarian
SF-539 CNS = test system: SF-539 CNS
SK-MEL-2 melanoma = test system: SK-MEL-2 melanoma
HT29 colon = test system: HT29 colon
MDA-MB-231 breast = test system: MDA-MB-231 breast
K-562 leukemia = test system: K-562 leukemia
COLO 205 colon = test system: COLO 205 colon
MOLT-4 leukemia = test system: MOLT-4 leukemia
A498 renal = test system: A498 renal
A549 NSCLC = test system: A549 NSCLC
UACC-257 melanoma = test system: UACC-257 melanoma
RPMI-8226 leukemia = test system: RPMI-8226 leukemia
BT-549 breast = test system: BT-549 breast
HOP-92 NSCLC = test system: HOP-92 NSCLC
DU-145 prostate = test system: DU-145 prostate
T-47D breast = test system: T-47D breast
CCRF-CEM leukemia = test system: CCRF-CEM leukemia
UACC-62 melanoma = test system: UACC-62 melanoma
MDA-MB-435 = test system: MDA-MB-435
OVCAR-3 ovarian = test system: OVCAR-3 ovarian
SW-620 colon = test system: SW-620 colon
MDA-N = test system: MDA-N
HS 578T breast = test system: HS 578T breast
786-0 renal = test system: 786-0 renal
KM12 colon = test system: KM12 colon
HOP-62 NSCLC = test system: HOP-62 NSCLC
M14 melanoma = test system: M14 melanoma
CAKI-1 renal = test system: CAKI-1 renal
RXF 393 renal = test system: RXF 393 renal
OVCAR-4 ovarian = test system: OVCAR-4 ovarian
HCT-116 colon = test system: HCT-116 colon
TK-10 renal = test system: TK-10 renal
NCI-H522 lung = test system: NCI-H522 lung
U251 CNS = test system: U251 CNS
LOX IMVI melanoma = test system: LOX IMVI melanoma
NCI-H460 lung = test system: NCI-H460 lung
SK-MEL-28 melanoma = test system: SK-MEL-28 melanoma
SF-268 CNS = test system: SF-268 CNS
SK-MEL-5 melanoma = test system: SK-MEL-5 melanoma
SNB-75 CNS = test system: SNB-75 CNS
PC-3 prostate = test system: PC-3 prostate
SR leukemia = test system: SR leukemia

O=c1[nH]nc(Cc2ccccc2)n1/N=C/c1ccccc1O
TGI (EKVX NSCLC): > 100 µM | TGI (NCI-H226 lung): > 100 µM | TGI (HL-60(TB) leukemia): > 100 µM | TGI (MCF7 breast): > 100 µM | TGI (MALME-3M melanoma): > 100 µM | TGI (NCI-H23 lung): > 100 µM | TGI (UO-31 renal): > 100 µM | TGI (SK-OV-3 ovarian): > 100 µM | TGI (ACHN renal): > 100 µM | TGI (OVCAR-5 ovarian): > 100 µM | TGI (HCC-2998 colon): > 100 µM | TGI (SNB-19 CNS): > 100 µM | TGI (HCT-15 colon): > 100 µM | TGI (OVCAR-8 ovarian): > 100 µM | TGI (SN12C renal): > 100 µM | TGI (SF-295 CNS): > 100 µM | TGI (IGROV1 ovarian): > 100 µM | TGI (NCI/ADR-RES ovarian): > 100 µM | TGI (SF-539 CNS): > 100 µM | TGI (SK-MEL-2 melanoma): > 100 µM | TGI (HT29 colon): > 100 µM | TGI (MDA-MB-231 breast): > 100 µM | TGI (K-562 leukemia): > 100 µM | TGI (COLO 205 colon): > 100 µM | TGI (MOLT-4 leukemia): > 100 µM | TGI (A498 renal): > 100 µM | TGI (A549 NSCLC): > 100 µM | TGI (UACC-257 melanoma): > 100 µM | TGI (RPMI-8226 leukemia): > 100 µM | TGI (BT-549 breast): > 100 µM | TGI (HOP-92 NSCLC): > 100 µM | TGI (DU-145 prostate): > 100 µM | TGI (T-47D breast): > 100 µM | TGI (CCRF-CEM leukemia): > 100 µM | TGI (UACC-62 melanoma): > 100 µM | TGI (MDA-MB-435): > 100 µM | TGI (OVCAR-3 ovarian): > 100 µM | TGI (SW-620 colon): > 100 µM | TGI (MDA-N): > 100 µM | TGI (HS 578T breast): > 100 µM | TGI (786-0 renal): > 100 µM | TGI (KM12 colon): > 100 µM | TGI (HOP-62 NSCLC): 99.8 µM | TGI (M14 melanoma): > 100 µM | TGI (CAKI-1 renal): > 100 µM | TGI (RXF 393 renal): 53.5 µM | TGI (OVCAR-4 ovarian): > 100 µM | TGI (HCT-116 colon): > 100 µM | TGI (TK-10 renal): > 100 µM | TGI (NCI-H522 lung): > 100 µM | TGI (U251 CNS): > 100 µM | TGI (LOX IMVI melanoma): > 100 µM | TGI (NCI-H460 lung): > 100 µM | TGI (SK-MEL-28 melanoma): > 100 µM | TGI (SF-268 CNS): > 100 µM | TGI (SK-MEL-5 melanoma): > 100 µM

Cc1ccc(NC(=O)CC2CC2)cc1-c1ccc(C(=O)NCC2CC2)cc1
GI50 (EKVX NSCLC): > 25 µM | TGI (EKVX NSCLC): > 25 µM | GI50 (NCI-H226 lung): > 25 µM | TGI (NCI-H226 lung): > 25 µM | GI50 (HL-60(TB) leukemia): > 24.2 µM | TGI (HL-60(TB) leukemia): > 25 µM | GI50 (MCF7 breast): > 25 µM | TGI (MCF7 breast): > 25 µM | GI50 (MALME-3M melanoma): > 25 µM | TGI (MALME-3M melanoma): > 25 µM | GI50 (NCI-H23 lung): > 25 µM | TGI (NCI-H23 lung): > 25 µM | GI50 (UO-31 renal): > 25 µM | TGI (UO-31 renal): > 25 µM | GI50 (SK-OV-3 ovarian): > 25 µM | TGI (SK-OV-3 ovarian): > 25 µM | GI50 (ACHN renal): > 25 µM | TGI (ACHN renal): > 25 µM | GI50 (OVCAR-5 ovarian): > 25 µM | TGI (OVCAR-5 ovarian): > 25 µM | GI50 (HCC-2998 colon): > 25 µM | TGI (HCC-2998 colon): > 25 µM | GI50 (SNB-19 CNS): > 25 µM | TGI (SNB-19 CNS): > 25 µM | GI50 (HCT-15 colon): > 25 µM | TGI (HCT-15 colon): > 25 µM | GI50 (OVCAR-8 ovarian): > 25 µM | TGI (OVCAR-8 ovarian): > 25 µM | GI50 (SN12C renal): > 25 µM | TGI (SN12C renal): > 25 µM | GI50 (SF-295 CNS): > 25 µM | TGI (SF-295 CNS): > 25 µM | GI50 (SNB-75 CNS): > 25 µM | TGI (SNB-75 CNS): > 25 µM | GI50 (IGROV1 ovarian): > 25 µM | TGI (IGROV1 ovarian): > 25 µM | GI50 (NCI/ADR-RES ovarian): > 25 µM | TGI (NCI/ADR-RES ovarian): > 25 µM | GI50 (SF-539 CNS): > 25 µM | TGI (SF-539 CNS): > 25 µM | GI50 (SK-MEL-2 melanoma): > 25 µM | TGI (SK-MEL-2 melanoma): > 25 µM | GI50 (HT29 colon): > 25 µM | TGI (HT29 colon): > 25 µM | GI50 (MDA-MB-231 breast): > 25 µM | TGI (MDA-MB-231 breast): > 25 µM | GI50 (K-562 leukemia): > 14.1 µM | TGI (K-562 leukemia): > 25 µM | GI50 (COLO 205 colon): > 25 µM | TGI (COLO 205 colon): > 25 µM | GI50 (MOLT-4 leukemia): > 25 µM | TGI (MOLT-4 leukemia): > 25 µM | GI50 (PC-3 prostate): > 25 µM | TGI (PC-3 prostate): > 25 µM | GI50 (A498 renal): > 25 µM | TGI (A498 renal): > 25 µM | GI50 (A549 NSCLC): > 25 µM | TGI (A549 NSCLC): > 25 µM | GI50 (UACC-257 melanoma): > 25 µM | TGI (UACC-257 melanoma): > 25 µM | GI50 (RPMI-8226 leukemia): > 25 µM | TGI (RPMI-8226 leukemia): > 25 µM | GI50 (BT-549 breast): > 25 µM | TGI (BT-549 breast): > 25 µM | GI50 (HOP-92 NSCLC): 8.45 µM | TGI (HOP-92 NSCLC): > 25 µM | GI50 (DU-145 prostate): > 25 µM | TGI (DU-145 prostate): > 25 µM | GI50 (T-47D breast): > 17.3 µM | TGI (T-47D breast): > 25 µM | GI50 (CCRF-CEM leukemia): > 25 µM | TGI (CCRF-CEM leukemia): > 25 µM | GI50 (UACC-62 melanoma): > 21.7 µM | TGI (UACC-62 melanoma): > 25 µM | GI50 (MDA-MB-435): > 19.5 µM | TGI (MDA-MB-435): > 25 µM | GI50 (OVCAR-3 ovarian): > 25 µM | TGI (OVCAR-3 ovarian): > 25 µM | GI50 (SW-620 colon): > 25 µM | TGI (SW-620 colon): > 25 µM | GI50 (HS 578T breast): > 25 µM | TGI (HS 578T breast): > 25 µM | GI50 (786-0 renal): > 25 µM | TGI (786-0 renal): > 25 µM | GI50 (KM12 colon): > 25 µM | TGI (KM12 colon): > 25 µM | GI50 (HOP-62 NSCLC): > 25 µM | TGI (HOP-62 NSCLC): > 25 µM | GI50 (M14 melanoma): > 25 µM | TGI (M14 melanoma): > 25 µM | GI50 (CAKI-1 renal): > 25 µM | TGI (CAKI-1 renal): > 25 µM | GI50 (RXF 393 renal): > 25 µM | TGI (RXF 393 renal): > 25 µM | GI50 (SR leukemia): 13.5 µM | TGI (SR leukemia): > 25 µM | GI50 (OVCAR-4 ovarian): > 25 µM | TGI (OVCAR-4 ovarian): > 25 µM | GI50 (HCT-116 colon): > 25 µM | TGI (HCT-116 colon): > 25 µM | GI50 (TK-10 renal): > 25 µM | TGI (TK-10 renal): > 25 µM | GI50 (NCI-H522 lung): > 25 µM | TGI (NCI-H522 lung): > 25 µM | GI50 (U251 CNS): > 25 µM | TGI (U251 CNS): > 25 µM | GI50 (LOX IMVI melanoma): > 25 µM | TGI (LOX IMVI melanoma): > 25 µM | GI50 (NCI-H460 lung): > 25 µM | TGI (NCI-H460 lung): > 25 µM | GI50 (SK-MEL-28 melanoma): > 25 µM | TGI (SK-MEL-28 melanoma): > 25 µM | GI50 (SF-268 CNS): > 25 µM | TGI (SF-268 CNS): > 25 µM | GI50 (SK-MEL-5 melanoma): > 17.5 µM | TGI (SK-MEL-5 melanoma): > 25 µM
